{"source": "patent EP4582094A1", "about": "“ISCHEMIA-REPERFUSION INJURY INHIBITOR” (Tohoku University, priority 2022, dated 2024)", "key": {"[1]": {"assay": "Mouse lung ischemia-reperfusion injury (pulmonary hilum clamping): physiological and histopathological evaluation of pulmonary edema", "format": "in vivo, C57BL/6J mice", "protocol": "GSSSG (MW 644) was dissolved in 0.1 M HCl to 25 mM GSSSG. Next, 20 µL of 25 mM GSSSG was added to 50 µL of 10x PBS and 430 µL of DW, and thus 500 µL of GSSSG solution (1 mM, 322 µg GSSSG) was adjusted in the end.\n(§1) An intervention group (N = 4) in which 500 µL of the GSSSG solution was intraperitoneally administered to C57BL/6J mice (22 months old, male) an hour before pulmonary hilum clamping surgery and a control group (N = 4) in which 500 µL of normal saline solution (NSS) was intraperitoneally administered were set. The pulmonary hilum structure was clamped together for 60 minutes, and the IRI was evaluated an hour and a day after releasing clamping.\nThe wet to dry weight ratios were measured as physiological evaluation of pulmonary edema due to the IRI (N = 4 in each group).\nThe alveolar edema was scored, and the edema around the pulmonary arteries was quantified as histopathological evaluation of pulmonary edema due to the IRI (N = 6 in each group). The scoring was conducted according to the criteria below, and an average of 10 fields was calculated for each mouse. Regarding the edema around the pulmonary arteries, three to five pulmonary arteries per mouse were extracted, and an average of the area ratios of the pulmonary artery and the edema around the artery was calculated.\n• 0 = no finding • 1 = finding in 1-25% • 2 = finding in 26-50% • 3 = finding in 51-75% • 4 = finding in 76-100%"}, "IL10": {"tested_on": "IL10", "assay": "RT-PCR gene expression of inflammatory cytokines in lung tissue after IRI", "format": "in vivo, C57BL/6J mice", "conditions": "lung tissue after the IRI; GSSSG administration group vs control; FIG. 2", "protocol": "as §1\n(§2) The inflammation due to the IRI was evaluated with gene expression of inflammatory cytokines in lung tissue. The wet to dry weight ratios were evaluated with N = 4 in each group, and the other items were evaluated with N = 5-6 in each group."}, "IL1b": {"tested_on": "IL1b", "assay": "RT-PCR gene expression of inflammatory cytokines in lung tissue after IRI", "format": "in vivo, C57BL/6J mice", "conditions": "lung tissue after the IRI; GSSSG administration group vs control; FIG. 2", "protocol": "as §1, §2"}, "IL6": {"tested_on": "IL6", "assay": "RT-PCR gene expression of inflammatory cytokines in lung tissue after IRI", "format": "in vivo, C57BL/6J mice", "conditions": "lung tissue after the IRI; GSSSG administration group vs control; FIG. 2", "protocol": "as §1, §2"}, "TNFα": {"tested_on": "TNFα", "assay": "RT-PCR gene expression of inflammatory cytokines in lung tissue after IRI", "format": "in vivo, C57BL/6J mice", "conditions": "lung tissue after the IRI; GSSSG administration group vs control; FIG. 2", "protocol": "as §1, §2"}, "HeLa cells": {"tested_on": "HeLa cells", "assay": "Mitochondrial membrane potential, JC-10 staining", "format": "cell-based", "conditions": "GSSSG added to medium at 1 µM, 10 µM and 100 µM; 24 hours; even at a low concentration; FIG. 3", "protocol": "HeLa cells were cultured in DMEM (low glucose) medium containing 10% FBS, and GSSSG was added to the medium at different concentrations (1 µM, 10 µM and 100 µM). The cells were stained with JC-10, which is a reagent for detecting mitochondrial membrane potential, after 24 hours and observed with a confocal microscope, and the fluorescent intensities were measured with a plate reader."}, "[2]": {"assay": "Rat isogeneic lung transplantation: ischemia-reperfusion injury after lung preservation", "format": "in vivo, Lewis rats", "conditions": "lung preservation solution containing 300 µM GSSSG, six hours at 4°C, an hour after the reperfusion, vs control group", "protocol": "In the GSSSG group (n=3), ET-TU solution containing GSSSG was used as the lung preservation solution. The GSSSG concentration was 300 µM, at which GSSSG could be mixed into EP-TU while maintaining pH 7 in a preliminary experiment. In the control group (n=3), ET-TU solution was used as it was as the lung preservation solution. As the rats, Lewis rats (male, 13-18 weeks, 275-350 g) were used both as the donors and the recipients.\nThe left lung of a donor was preserved for six hours at 4°C using the lung preservation solution (EP-TU) and transplanted into the left lung of a recipient rat. After reperfusion for an hour after the lung transplantation, the right pulmonary hilum (pulmonary artery and vein/bronchus) was blocked, and the degree of ischemia-reperfusion injury of the left lung was evaluated. As indicators for ischemia-reperfusion injury, the weight gain of the grafted lung (weight after transplantation - weight before transplantation) and the arterial oxygen tension (PaO2) after blocking the right pulmonary hilum were used."}}, "data": [{"smiles": "N[C@@H](CCC(=O)N[C@@H](CSSSC[C@H](NC(=O)CC[C@H](N)C(=O)O)C(=O)NCC(=O)O)C(=O)NCC(=O)O)C(=O)O", "note": "[GSSSG, glutathione trisulfide]", "values": [{"measurement": "edema around the pulmonary arteries", "setting": "[1]; 500 µL GSSSG solution (1 mM) intraperitoneally an hour before clamping, area ratio of pulmonary artery and edema around it, vs control group, FIG. 1c", "value": "relief of pulmonary edema was observed"}, {"measurement": "score of alveolar edema", "setting": "[1]; 500 µL GSSSG solution (1 mM) intraperitoneally an hour before clamping, histopathological evaluation, vs control group, FIG. 1b", "value": "relief of pulmonary edema was observed"}, {"measurement": "wet to dry weight ratio", "setting": "[1]; 500 µL GSSSG solution (1 mM, 322 µg) intraperitoneally an hour before 60 min pulmonary hilum clamping, 22 months old male mice, an hour and a day after the IRI, vs control group (NSS), FIG. 1a", "value": "decreased with a significance"}, {"measurement": "gene expression of IL10", "setting": "IL10", "value": "decreased with a significance"}, {"measurement": "gene expression of IL1b", "setting": "IL1b", "value": "no difference was observed"}, {"measurement": "gene expression of IL6", "setting": "IL6", "value": "decreased with a significance"}, {"measurement": "gene expression of TNFα", "setting": "TNFα", "value": "no difference was observed"}, {"measurement": "mitochondrial membrane potential", "setting": "HeLa cells", "value": "increased with a significance"}, {"measurement": "arterial oxygen tension (PaO2) after blocking the right pulmonary hilum", "setting": "[2]; FIG. 10A", "value": "improved"}, {"measurement": "weight gain of the grafted lung", "setting": "[2]; FIG. 10B", "value": "decreased"}]}]}
